In brackets after ≈: the same amount, converted by molar mass. Read-outs that look alike come from different tables or passages of the source. One block for each compound: values may come before it. Peptide text beside a SMILES is read from it.
Legend:
[1] = system: Klebsiella pneumoniae (ATCC 25955); assay type: cell-based; settings: 10 mM Tris buffer, bacteria 1 × 10^6 CFU/mL, 1 h 37 °C, then TSB 16–18 h, read at 595 nm
Method: (§1) The following uropathogenic bacterial species were used for the in vitro experiments, E. coli CFT073; E. coli ESBL-producing (CCUG 55197); K. pneumoniae (ATCC 25955); K. pneumoniae multidrug resistant (MDR) (CCUG 58547); and P. aeruginosa (ATCC 27853). Clinical isolates were obtained from the Department of Clinical Microbiology, Karolinska University Hospital, Solna, Sweden. Bacteria were cultured aerobically overnight on blood agar plates at 37 °C. For each bacterial species, 20 clinical isolates were included. For further assessment of biofilm formation, the E. coli isolate #12 from a child with pyelonephritis was chosen. The isolate expresses both curli and cellulose, as well as type 1 fimbriae and produces biofilm as measured on microtiter plates One-step knockout of bcsA and csgBA were carried out using the methods as described previously. The following mutants were used: WE1 bcsA::Cm (deficient in cellulose production), WE11 csgBA::Cm (deficient in curli production), and WE16 csgBA bscA::Cm (deficient in both cellulose and curli production). E. coli CFT073 was used for all experiments where nothing else is stated.
(§2) MIC of CD4-PP was evaluated against the type strains and the 20 clinical bacterial isolates using a two-step micro-dilution assay adapted for testing AMPs. The concentrations of CD4-PP were prepared double strength with two-fold serial dilutions ranging from 50 to 0.78 µM in 50 µL of 10 mM Tris buffer in a U-bottom 96-well plate (Corning Incorporated).
(§3) Bacteria were grown to mid-log phase before diluting to a final concentration of 1 × 10^6 CFU/mL in 10 mM Tris buffer using a Densichek Plus (BioMérieux). To each well, 50 µL suspension was added and incubated at 37 °C for 1 h and the final concentrations of peptide tested were from 25 to 0.39 µM. […] The MIC was read spectrophotometrically at 595 nm. MIC was defined as the lowest concentration of CD4-PP which inhibits bacterial growth. The effects of salt ions on the antibacterial activities of CD4-PP were assessed against E. coli (ATCC 25922) and P. aeruginosa (ATCC 27853) type strains. The following salts were used: sodium chloride (NaCl), ammonium chloride (NH4Cl), calcium chloride (CaCl2), magnesium chloride (MgCl2) and ferric chloride (FeCl3). All salts were purchased from Merck.

[2] = system: MDR K. pneumoniae (CCUG 58547); assay type: cell-based, Klebsiella pneumoniae; settings: 10 mM Tris buffer, bacteria 1 × 10^6 CFU/mL, 1 h 37 °C, then TSB 16–18 h, read at 595 nm
Method: as §1, with “The following mutants were used: WE1 bcsA::Cm (deficient in cellulose production), WE11 csgBA::Cm (deficient in curli production), and WE16 csgBA bscA::Cm (deficient in both cellulose and curli production). E. coli CFT073 was used for all experiments where nothing else is stated.” left out
MIC of CD4-PP was evaluated against the type strains and the 20 clinical bacterial isolates using a two-step micro-dilution assay adapted for testing AMPs. […]
Bacteria were grown to mid-log phase before diluting to a final concentration of 1 × 10^6 CFU/mL in 10 mM Tris buffer using a Densichek Plus (BioMérieux). […] The MIC was read spectrophotometrically at 595 nm. […] The effects of salt ions on the antibacterial activities of CD4-PP were assessed against E. coli (ATCC 25922) and P. aeruginosa (ATCC 27853) type strains. […]

E. coli CFT073 = assay type: cell-based, Escherichia coli
Method: as §1, §2
as §3, with “The following salts were used: sodium chloride (NaCl), ammonium chloride (NH4Cl), calcium chloride (CaCl2), magnesium chloride (MgCl2) and ferric chloride (FeCl3). All salts were purchased from Merck.” left out

[3] = system: E. coli ESBL strain (CCUG 55971); assay type: cell-based, Escherichia coli; settings: 10 mM Tris buffer, bacteria 1 × 10^6 CFU/mL, 1 h 37 °C, then TSB 16–18 h, read at 595 nm
Method: as §1, §2
as §3, with “The following salts were used: sodium chloride (NaCl), ammonium chloride (NH4Cl), calcium chloride (CaCl2), magnesium chloride (MgCl2) and ferric chloride (FeCl3). All salts were purchased from Merck.” left out

aureolysin [4] = biological target: aureolysin (Staphylococcus aureus, UniProt P81177); experiment: Proteolytic stability against aureolysin; assay type: in vitro ADME; settings: bacterial protease aureolysin; percentage of intact peptide at time points by LC–MS
Method: A major limitation of AMPs as potential drug candidates is due to their inherent proteolytic instability, and endogenous AMPs are readily degraded by both host- and pathogen-proteases. […] Therefore, the stability of CD4-PP was tested against this enzyme. The percentage of the intact peptide at different time points was monitored using LC–MS, and compared to LL-37 as a control. […] In contrast, CD4-PP is stable for up to 6 h (Supplementary Fig. S2).
[picture] Supplementary Figure S2.

aureolysin [5] = experiment: bacterial protease aureolysin; settings: up to 6 h
[6] = system: Pseudomonas aeruginosa (ATCC 27853); assay type: cell-based
Method: as §1, §2, §3

[7] = stated in SEM method, bacteria at 10^8 CFU/mL in 10 mM Tris buffer

Compound: CC[C@H](C)[C@@H]1NC(=O)[C@H](CCCNC(=N)N)NC(=O)[C@H](CCCCN)NC(=O)[C@H](C(C)C)NC(=O)[C@H]([C@@H](C)CC)NC(=O)[C@H](CCCNC(=N)N)NC(=O)[C@H](CCCCN)NC(=O)CNC(=O)CNC(=O)[C@@H]2CCCN2C(=O)[C@H](CS)NC(=O)[C@H](CCCNC(=N)N)NC(=O)[C@H](CC(C)C)NC(=O)[C@H](Cc2ccccc2)NC(=O)[C@H](C)NC(=O)[C@H](CCCCN)NC(=O)[C@H]([C@@H](C)CC)NC(=O)[C@H](CCCNC(=N)N)NC(=O)[C@H](CCCCN)NC(=O)[C@H](C(C)C)NC(=O)[C@H]([C@@H](C)CC)NC(=O)[C@H](CCCNC(=N)N)NC(=O)[C@H](CCCCN)NC(=O)CNC(=O)CNC(=O)[C@@H]2CCCN2C(=O)CNC(=O)[C@H](CCCNC(=N)N)NC(=O)[C@H](CC(C)C)NC(=O)[C@H](Cc2ccccc2)NC(=O)[C@H](C)NC(=O)[C@H](CCCCN)NC1=O [CD4-PP] (cyclo(AFLRCPGGKRIVKRIKAFLRGPGGKRIVKRIK))
MIC [1]: 1.56 µM (≈ 5.62 µg/mL) | MIC [2]: 1.56 µM (≈ 5.62 µg/mL) | MIC (E. coli CFT073; CFT073, 1 h): 0.78 µM (≈ 2.81 µg/mL) | MIC [3]: 0.78 µM (≈ 2.81 µg/mL) | time for which the peptide is stable with aureolysin (aureolysin [4]): up to 6 h

cleaved bond (aureolysin [5]): L31-V32
Compound: LLGDFFRKSKEKIGKEFKRIVQRIKDFLRNLVPRTES

Compound: CC[C@H](C)[C@H](NC(=O)[C@H](CCCCN)NC(=O)[C@H](CCC(=O)O)NC(=O)[C@H](CCCCN)NC(=O)[C@H](CO)NC(=O)[C@H](CCCCN)NC(=O)[C@H](CCCNC(=N)N)NC(=O)[C@H](Cc1ccccc1)NC(=O)[C@H](Cc1ccccc1)NC(=O)[C@H](CC(=O)O)NC(=O)CNC(=O)[C@H](CC(C)C)NC(=O)[C@@H](N)CC(C)C)C(=O)NCC(=O)N[C@@H](CCCCN)C(=O)N[C@@H](CCC(=O)O)C(=O)N[C@@H](Cc1ccccc1)C(=O)N[C@@H](CCCCN)C(=O)N[C@@H](CCCNC(=N)N)C(=O)N[C@H](C(=O)N[C@H](C(=O)N[C@@H](CCC(N)=O)C(=O)N[C@@H](CCCNC(=N)N)C(=O)N[C@H](C(=O)N[C@@H](CCCCN)C(=O)N[C@@H](CC(=O)O)C(=O)N[C@@H](Cc1ccccc1)C(=O)N[C@@H](CC(C)C)C(=O)N[C@@H](CCCNC(=N)N)C(=O)N[C@@H](CC(N)=O)C(=O)N[C@@H](CC(C)C)C(=O)N[C@H](C(=O)N1CCC[C@H]1C(=O)N[C@@H](CCCNC(=N)N)C(=O)N[C@H](C(=O)N[C@@H](CCC(=O)O)C(=O)N[C@@H](CO)C(=O)O)[C@@H](C)O)C(C)C)[C@@H](C)CC)C(C)C)[C@@H](C)CC [LL-37]
MIC ([6]; CaCl2 2.5 mM): >10 µM | MIC ([6]; FeCl3 4 µM): 2.5 µM (≈ 11.2 µg/mL) | MIC ([6]; MgCl2 1 mM): 5 µM (≈ 22.5 µg/mL) | MIC ([6]; NH4Cl 6 µM): 1.25 µM (≈ 5.62 µg/mL) | MIC ([6]; NaCl 150mM): 5 µM (≈ 22.5 µg/mL) | MIC ([6]; salt series: Tris-buffer 10mM, no added salt): 1.25 µM | MIC (reference concentration used for SEM) [6, 7]: 15.62 µM | MIC (reference concentration used for SEM) (E. coli CFT073; [7]): 15.62 µM | degradation by aureolysin (in words) (aureolysin [4]): rapidly degraded within minutes

not cleaved (aureolysin [5]): stable for up to 6 h
Compound: CPGGKRIVKRIKAFLRGPGGKRIVKRIKAFLR

From publication PMC9276586 (Cellular and Molecular Life Sciences: CMLS, 2022)
